Assay [1] concerns the target T1, BaF3 cells transfected with wild type p210 BCR-Abl (Homo sapiens, UniProt P00519).
T1 construct: fused on or other part: P11274 (Breakpoint cluster region protein)
Briefly: Ba/F3 p210 whole cell proliferation assay (Cell Titer Blue, 72 hours). Type of assay: cell-based. The note with it: 72 hours incubation; read-out: Ba/F3 p210 whole cell proliferation assay, antiproliferation IC50. The procedure: BaF3 cells (parental or transfected with the following: wild type p210 BCR-Abl and T315I p210 BCR-Abl was obtained from Professor Richard Van Etten (New England Medical Center, Boston, Mass.). Briefly, cells were grown in RPMI 1640 supplemented with 10% characterized fetal bovine serum (HyClone, Logan, Utah) at 37 degrees Celsius, 5% CO2, 95% humidity. Cells were allowed to expand until reaching 80% saturation at which point they were subcultured or harvested for assay use.
A serial dilution of test compound was dispensed into a 96 well black clear bottom plate (Corning, Corning, N.Y.). For each cell line, three thousand cells were added per well in complete growth medium. Plates were incubated for 72 hours at 37 degrees Celsius, 5% CO2, 95% humidity. At the end of the incubation period Cell Titer Blue (Promega, Madison, Wis.) was added to each well and an additional 4.5 hour incubation at 37 degrees Celsius, 5% CO2, 95% humidity was performed. Plates were then read on a BMG Fluostar Optima (BMG, Durham, N.C.) using an excitation of 544 nm and an emission of 612 nm. Data was analyzed using Prism software (Graphpad, San Diego, Calif.) to calculate IC50's.

In a further assay the target is T2, Abl kinase (SEQ ID NO:1) (Homo sapiens, UniProt P00519).
T2 construct: purchased deCode Genetics
T2 sequence (P00519 with tags, fused parts or gaps): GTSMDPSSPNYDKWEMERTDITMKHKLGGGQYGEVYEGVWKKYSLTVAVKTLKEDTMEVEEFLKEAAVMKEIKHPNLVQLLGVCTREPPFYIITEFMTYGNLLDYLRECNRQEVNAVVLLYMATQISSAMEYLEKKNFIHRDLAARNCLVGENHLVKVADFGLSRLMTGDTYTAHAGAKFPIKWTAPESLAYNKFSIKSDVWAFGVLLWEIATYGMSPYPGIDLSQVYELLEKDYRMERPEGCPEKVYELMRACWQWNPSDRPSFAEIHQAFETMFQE
Briefly: Abl kinase assay (pyruvate kinase/lactate dehydrogenase coupled, ADP production). The note with it: 2 h preincubation at 30° C., ATP 500 μM; read-out: Abl Enzyme Assay, biochemical IC50. The procedure:
Abl Kinase (SEQ ID NO:1) Assay
Activity of Abl kinase (SEQ ID NO:1) was determined by following the production of ADP from the kinase reaction through coupling with the pyruvate kinase/lactate dehydrogenase system (e.g., Schindler, et al. Science (2000) 289, 1938-1942). In this assay, the oxidation of NADH (thus the decrease at A340nm) was continuously monitored spectrophometrically. The reaction mixture (100 μl) contained Abl kinase (1 nM. Abl from deCode Genetics), peptide substrate (EAIYAAPFAKKK. 0.2 mM), MgCl2 (10 mM), pyruvate kinase (4 units), lactate dehydrogenase (0.7 units), phosphoenol pyruvate (1 mM), and NADH (0.28 mM) in 90 mM Tris buffer containing 0.2% octyl-glucoside and 3.5% DMSO, pH 7.5. Test compounds were incubated with Abl (SEQ ID NO:1) and other reaction reagents at 30° C. for 2 h before ATP (500 μM) was added to start the reaction. The absorption at 340 nm was monitored continuously for 2 hours at 30° C. on Polarstar Optima plate reader (BMG). The reaction rate was calculated using the 1.0 to 2.0 h time frame. Percent inhibition was obtained by comparison of reaction rate with that of a control (i.e. with no test compound). IC50 values were calculated from a series of percent inhibition values determined at a range of inhibitor concentrations using software routines as implemented in the GraphPad Prism software package.

Assay [2] deals with T3, C-Met kinase (SEQ ID NO:10) (Homo sapiens, UniProt P08581).
T3 construct: purchased Invitrogen PV3143
The assay can be described thus: C-Met kinase assay (pyruvate kinase/lactate dehydrogenase coupled). Conditions: 0.5 h preincubation at 22° C., ATP 100 μM; read-out: c-Met Enzyme Assay, biochemical IC50. The method, then: C-Met Kinase (SEQ ID NO:10) Assay
Activity of C-Met kinase (SEQ ID NO:10) was determined by following the production of ADP from the kinase reaction through coupling with the pyruvate kinase/lactate dehydrogenase system (e.g., Schindler, et al. Science (2000) 289, 1938-1942). In this assay, the oxidation of NADH (thus the decrease at A340 nm) was continuously monitored spectrophometrically. The reaction mixture (100 μl) contained C-Met (c-Met residues; 956-1390, from Invitrogen, catalogue #PV3143, 6 nM), polyE4Y (1 mg/ml), MgCl2 (10 mM), pyruvate kinase (4 units), lactate dehydrogenase (0.7 units), phosphoenol pyruvate (1 mM), and NADH (0.28 mM) in 90 mM Tris buffer containing 0.25 mM DTT, 0.2% octyl-glucoside and 1% DMSO, pH 7.5. Test compounds were incubated with C-Met (SEQ ID NO:10) and other reaction reagents at 22° C. for 0.5 h before ATP (100 μM) was added to start the reaction. The absorption at 340 n=was monitored continuously for 2 hours at 30° C. on Polarstar Optima plate reader (BMG). The reaction rate was calculated using the 1.0 to 2.0 h time frame. Percent inhibition was obtained by comparison of reaction rate with that of a control (i.e. with no test compound). IC50 values were calculated from a series of percent inhibition values determined at a range of inhibitor concentrations using software routines as implemented in the GraphPad Prism software package.

pIC50: −log10 of the molar value. Structures can show the parent of a compound that is named as a salt.

T1 sequence (P00519 whole entry, change not shown, the tested form may be a part): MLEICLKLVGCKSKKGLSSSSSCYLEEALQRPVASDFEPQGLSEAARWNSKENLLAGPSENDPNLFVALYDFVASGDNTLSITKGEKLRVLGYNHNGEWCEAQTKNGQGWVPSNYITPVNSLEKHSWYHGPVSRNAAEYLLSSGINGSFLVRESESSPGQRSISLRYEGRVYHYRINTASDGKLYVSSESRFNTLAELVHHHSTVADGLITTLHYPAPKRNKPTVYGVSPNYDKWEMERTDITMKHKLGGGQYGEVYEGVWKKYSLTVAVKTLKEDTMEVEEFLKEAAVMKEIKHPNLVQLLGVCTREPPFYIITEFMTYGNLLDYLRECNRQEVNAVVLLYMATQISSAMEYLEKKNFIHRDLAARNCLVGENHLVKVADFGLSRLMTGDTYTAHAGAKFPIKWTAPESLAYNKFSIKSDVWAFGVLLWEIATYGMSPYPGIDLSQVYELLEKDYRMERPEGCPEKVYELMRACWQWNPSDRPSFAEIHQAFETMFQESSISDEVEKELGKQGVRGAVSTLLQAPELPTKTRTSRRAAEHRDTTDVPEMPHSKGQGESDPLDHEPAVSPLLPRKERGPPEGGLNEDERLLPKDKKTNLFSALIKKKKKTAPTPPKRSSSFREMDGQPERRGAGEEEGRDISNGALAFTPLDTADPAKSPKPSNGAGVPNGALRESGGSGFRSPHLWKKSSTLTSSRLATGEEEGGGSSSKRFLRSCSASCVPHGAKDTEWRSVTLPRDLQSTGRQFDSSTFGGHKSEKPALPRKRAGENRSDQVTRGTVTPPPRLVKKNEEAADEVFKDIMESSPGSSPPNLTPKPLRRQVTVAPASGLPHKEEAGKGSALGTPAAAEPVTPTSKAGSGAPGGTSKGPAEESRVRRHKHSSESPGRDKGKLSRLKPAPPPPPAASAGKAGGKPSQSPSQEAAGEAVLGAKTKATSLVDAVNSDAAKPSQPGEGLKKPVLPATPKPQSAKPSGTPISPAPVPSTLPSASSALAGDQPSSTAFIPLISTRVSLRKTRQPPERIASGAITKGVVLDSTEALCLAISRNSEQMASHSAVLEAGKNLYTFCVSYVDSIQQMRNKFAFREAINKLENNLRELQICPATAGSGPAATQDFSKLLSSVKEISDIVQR
T3 sequence (P08581 with tags, fused parts or gaps): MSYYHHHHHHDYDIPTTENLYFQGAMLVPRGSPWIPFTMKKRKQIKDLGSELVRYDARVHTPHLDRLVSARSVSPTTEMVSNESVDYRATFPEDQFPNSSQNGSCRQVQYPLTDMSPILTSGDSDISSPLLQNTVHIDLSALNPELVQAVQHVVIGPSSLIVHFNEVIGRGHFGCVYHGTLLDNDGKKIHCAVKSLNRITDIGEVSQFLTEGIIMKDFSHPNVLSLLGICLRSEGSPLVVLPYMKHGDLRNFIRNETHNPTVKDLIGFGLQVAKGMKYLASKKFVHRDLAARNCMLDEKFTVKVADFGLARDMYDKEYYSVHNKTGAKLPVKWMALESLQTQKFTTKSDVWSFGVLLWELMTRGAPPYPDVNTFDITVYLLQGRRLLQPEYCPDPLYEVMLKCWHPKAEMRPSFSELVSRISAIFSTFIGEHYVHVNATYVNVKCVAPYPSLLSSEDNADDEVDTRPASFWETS

The pIC50 is the negative decadic logarithm of the IC50, by convention in mol/L. Regarding “1-(2-tert-butyl-4-(pyridin-3-yl)pyrimidin-5-yl)-3-(2-fluoro-5-(8-methyl-2-(methylamino)-7-oxo-7,8-dihydropyrido[2,3-d]pyrimidin-6-yl)phenyl)urea [Example 10]”, the GI50 in assay [1] was under 100 nM. The pIC50 on Abl kinase (SEQ ID NO:1) is over 7.00; in assay [2], over 5.00.

As to `CC(C)c1cc(NC(=O)Nc2ccc(Oc3ccnc(-c4cnn(C)c4)c3)cc2F)n(-c2cccc(C#N)c2)n1` [Example 2, 1-(1-(3-cyanophenyl)-3-isopropyl-1H-pyrazol-5-yl)-3-(2-fluoro-4-(2-(1-methyl-1H-pyrazol-4-yl)pyridin-4-yloxy)phenyl)urea], the GI50 in assay [1] is under 100 nM. Besides, the pIC50 (at Abl kinase (SEQ ID NO:1); in assay [2]) was over 7.00 throughout.

As for `CC(C)(C)c1cc(NC(=O)Nc2ccc(Oc3ccnc(-c4cn[nH]c4)c3)cc2F)n(-c2cccc(C#N)c2)n1` [Example 3, 1-(4-(2-(1H-pyrazol-4-yl)pyridin-4-yloxy)-2-fluorophenyl)-3-(3-tert-butyl-1-(3-cyanophenyl-1H-pyrazol-5-yl)urea hydrochloride], in assay [1], the GI50 was under 100 nM. Also, the pIC50 (on Abl kinase (SEQ ID NO:1); in assay [2]) was over 7.00 throughout.

For the molecule `Cn1cc(-c2cc(Oc3ccc(NC(=O)Nc4cc(C(C)(C)C)nn4-c4cccc(C#N)c4)c(F)c3)ccn2)cn1` [Example 4, 1-(3-tert-butyl-1-(3-cyanophenyl)-1H-pyrazol-5-yl)-3-(2-fluoro-4-(2-(1-methyl-1H-pyrazol-4-yl)pyridin-4-yloxy)phenyl)urea hydrochloride], in assay [1], the GI50 is under 100 nM. The negative-log IC50 (pIC50) (on Abl kinase (SEQ ID NO:1); in assay [2]) was over 7.00 in each case.

In the case of `CC(C)c1cc(NC(=O)Nc2ccc(Oc3ccnc(-c4cnn(C)c4)c3)cc2F)n(-c2ccc(F)c(C#N)c2)n1` [Example 5, 1-(1-(3-cyano-4-fluorophenyl)-3-isopropyl-1H-pyrazol-5-yl)-3-(2-fluoro-4-(2-(1-methyl-1H-pyrazol-4-yl)pyridin-4-yloxy)phenyl)urea], the GI50 in assay [1] is under 100 nM. In addition, the negative logarithm of the IC50 (pIC50) on Abl kinase (SEQ ID NO:1) is over 7.00; in assay [2] it was over 6.00.

For the molecule `Cn1cc(-c2cc(Oc3ccc(NC(=O)Nc4cc(C(C)(C)C)nn4-c4ccc(C#N)cc4)c(F)c3)ccn2)cn1` [Example 6, 1-(3-tert-butyl-1-(4-cyanophenyl)-1H-pyrazol-5-yl)-3-(2-fluoro-4-(2-(1-methyl-1H-pyrazol-4-yl)pyridin-4-yloxy)phenyl)urea], in assay [1], the GI50 was under 100 nM. Moreover, the pIC50 (at Abl kinase (SEQ ID NO:1); in assay [2]) was over 7.00 throughout.

`Cn1cc(-c2cc(Oc3ccc(NC(=O)Nc4cc(C(C)(C)C)nn4-c4cccc(CO)c4)c(F)c3)ccn2)cn1` [Example 7, 1-(3-tert-butyl-1-(3-(hydroxymethyl)phenyl)-1H-pyrazol-5-yl)-3-(2-fluoro-4-(2-(1-methyl-1H-pyrazol-4-yl)pyridin-4-yloxy)phenyl)urea p-toluenesulfonic acid]: the GI50 in assay [1] is under 100 nM. Moreover, the pIC50 (on Abl kinase (SEQ ID NO:1); in assay [2]) was over 7.00 each time.

For `Cn1cc(-c2cc(Oc3ccc(NC(=O)Nc4cc(C(C)(C)C)nn4-c4ccc(CO)cc4)c(F)c3)ccn2)cn1` [Example 8, 1-(3-tert-butyl-1-(4-(hydroxymethyl)phenyl)-1H-pyrazol-5-yl)-3-(2-fluoro-4-(2-(1-methyl-1H-pyrazol-4-yl)pyridin-4-yloxy)phenyl)urea], the GI50 in assay [1] is under 100 nM. The negative-log IC50 (pIC50) (on Abl kinase (SEQ ID NO:1); in assay [2]) was over 7.00 each time.

Regarding `CCc1cc(NC(=O)Nc2ccc(Oc3ccnc(-c4cnn(C)c4)c3)cc2F)n(-c2cccc(C#N)c2)n1` [Example 9, 1-(1-(3-cyanophenyl)-3-ethyl-1H-pyrazol-5-yl)-3-(2-fluoro-4-(2-(1-methyl-1H-pyrazol-4-yl)pyridin-4-yloxy)phenyl)urea], the GI50 in assay [1] is under 100 nM. Also, the pIC50 at Abl kinase (SEQ ID NO:1) was over 7.00; in assay [2], over 6.00.

Regarding `Cc1ccc(-n2nc(C(C)C)cc2NC(=O)Nc2ccc(Oc3ccnc(-c4cnn(C)c4)c3)cc2F)cc1C#N` [Example 11, 1-(1-(3-cyano-4-methylphenyl)-3-isopropyl-1H-pyrazol-5-yl)-3-(2-fluoro-4-(2-(1-methyl-1H-pyrazol-4-yl)pyridin-4-yloxy)phenyl)urea], the GI50 in assay [1] is under 100 nM. Further, the pIC50 (at Abl kinase (SEQ ID NO:1); in assay [2]) was over 7.00 each time.

As for `Cc1c(Oc2ccnc(-c3cnn(C)c3)c2)ccc(NC(=O)Nc2cc(C(C)C)nn2-c2cccc(C#N)c2)c1F` [Example 12, 1-(1-(3-cyanophenyl)-3-isopropyl-1H-pyrazol-5-yl)-3-(2-fluoro-3-methyl-4-(2-(1-methyl-1H-pyrazol-4-yl)pyridin-4-yloxy)phenyl)urea], in assay [1], the GI50 was under 100 nM. Besides, the pIC50 (at Abl kinase (SEQ ID NO:1); in assay [2]) was over 7.00 throughout.

Consider `CC(C)c1cc(NC(=O)Nc2ccc(Oc3ccnc(-c4cnn(C)c4)c3)c(F)c2F)n(-c2cccc(C#N)c2)n1` [Example 13, 1-(1-(3-cyanophenyl)-3-isopropyl-1H-pyrazol-5-yl)-3-(2,3-difluoro-4-(2-(1-methyl-1H-pyrazol-4-yl)pyridin-4-yloxy)phenyl)urea], for which the GI50 in assay [1] is under 100 nM. In addition, the negative logarithm of the IC50 (pIC50) (on Abl kinase (SEQ ID NO:1); in assay [2]) was over 7.00 each time.

Turning to `Cc1ncc(NC(=O)Nc2ccc(Oc3ccnc(-c4cnn(C)c4)c3)cc2F)c(-c2ccccc2)n1` [Example 14, 1-(2-fluoro-4-(2-(1-methyl-1H-pyrazol-4-yl)pyridin-4-yloxy)phenyl)-3-(2-methyl-4-phenylpyrimidin-5-yl)urea], in assay [1], the GI50 was under 100 nM. Also, the negative logarithm of the IC50 (pIC50) on Abl kinase (SEQ ID NO:1) was over 7.00; in assay [2], over 5.00.

As for `CC(C)c1cc(NC(=O)Nc2ccc(Oc3ccnc(-c4cnn(C)c4)c3)c(F)c2)n(-c2cccc(C#N)c2)n1` [Example 16, 1-(1-(3-cyanophenyl)-3-isopropyl-1H-pyrazol-5-yl)-3-(3-fluoro-4-(2-(1-methyl-1H-pyrazol-4-yl)pyridin-4-yloxy)phenyl)urea], in assay [1], the GI50 was under 100 nM. Further, the negative logarithm of the IC50 (pIC50) (on Abl kinase (SEQ ID NO:1); in assay [2]) was over 7.00 in each case.

Consider `CCc1cc(NC(=O)Nc2ccc(Oc3ccnc(-c4cnn(C(C)C)c4)c3)cc2F)n(-c2cccc(C#N)c2)n1` [Example 17, 1-(1-(3-cyanophenyl)-3-ethyl-1H-pyrazol-5-yl)-3-(2-fluoro-4-(2-(1-isopropyl-1H-pyrazol-4-yl)pyridin-4-yloxy)phenyl)urea], for which the GI50 in assay [1] is under 100 nM. For the same molecule, the pIC50 at Abl kinase (SEQ ID NO:1) was over 7.00; in assay [2] it was over 6.00.

These data come from US20080269267A1, “KINASE INHIBITORS USEFUL FOR THE TREATMENT OF MYLEOPROLIFIC DISEASES AND OTHER PROLIFERATIVE DISEASES” (Deciphera Pharmaceuticals, LLC, priority 2007, published 2008).
